Experimental findings from PMC12040169 (PLOS Biology, 2025) are described below.

The nature of the first data set: in vitro. Particulars: human, hela cells, % viability.
For the compound `CCOC(=O)CN1CCN(S(=O)(=O)c2ccc(F)c(Cl)c2)CC1` [CBK043782], the viability at 28.5 h, 10 µM is 89.3%.
Turning to `O=S(=O)(NCc1ccc(F)cc1Cl)c1ccc(Cl)c(Cl)c1` [CBK043785], the viability at 28.5 h, 10 µM was found to be 91%.
As for `Cc1cc(S(=O)(=O)N(C)CCC#N)c(C)cc1Cl` [CBK043787], the viability at 28.5 h, 10 µM amounted to 111%.
As for `O=S(=O)(c1ccc(Cl)c(Cl)c1)N1CCOCC1` [CBK043794], the viability at 28.5 h, 10 µM worked out at 90.7%.
Still for that read-out and setting: under `CCN(Cc1ccncc1)S(=O)(=O)c1ccc(Cl)c(Cl)c1` [CBK043818] stands 96.2%; under `COCCN(C)S(=O)(=O)c1cc(C)c(Cl)cc1C` [CBK043867], 105%.
Same read-out and setting: under `CCc1cc(Br)ccc1S(=O)(=O)Nc1ccccc1O` [CBK043877] stands 92%; under `O=S(=O)(Nc1cccc2cccnc12)c1cccs1` [CBK043904], 60.8%.
The same measure, in the same setting: under `CC(C)c1ccccc1NC(=O)NCCc1cccs1` [CBK043938] stands 97.9%; under `Cc1cccc(C(C)(C)C)c1NC(=O)N1CCC(Cc2ccccc2)CC1` [CBK043962], 112%; under `O=C(Nc1ccc2ccccc2c1)N1CCN(C(=O)C2CCCO2)CC1` (centres unmarked) [CBK044043], 96.6%.
With `CC(=O)Nc1ccc(S(=O)(=O)Nc2ccc(CC#N)cc2)cc1Cl` [CBK044058], the viability at 28.5 h, 10 µM was 87.8%.
On to `O=S(=O)(NCCc1cccc(C(F)(F)F)c1)c1cccs1` [CBK044068], for which the viability at 28.5 h, 10 µM stood at 91.1%.
Same read-out and setting: under `CC1CN(C2CCN(S(=O)(=O)c3cccs3)CC2)C(=O)O1` (centres unmarked) [CBK044072] stands 112%.
For the compound `COC(=O)c1cc(NC(=O)NCCC2=CCCCC2)cc(C(=O)OC)c1` [CBK044120], the viability at 28.5 h, 10 µM came to 90.9%.
Regarding `CCC(C)(C)c1ccc(S(=O)(=O)NCCCN2CCCC2)cc1` [CBK044126], the viability at 28.5 h, 10 µM turned out to be 95.8%.
Consider `Cc1ccc(NC(=O)NCCC2=CCCCC2)cc1Cl` [CBK044135], for which the viability at 28.5 h, 10 µM was found to be 110%.
As to `CCOC(=O)CN1CCN(C(=O)Nc2ccccc2Br)CC1` [CBK044156], the viability at 28.5 h, 10 µM is 103%.
On to `CCOC(=O)NC(=O)N1CCC(N2C(=O)OCC2(C)C)CC1` [CBK044179], for which the viability at 28.5 h, 10 µM came to 90.5%.
`O=C(NCCC1=CCCCC1)Nc1ccc2ccccc2c1` [CBK044195]: the viability at 28.5 h, 10 µM worked out at 104%.
As for `Cc1cc(S(=O)(=O)NCC(=O)OC(C)C)c(C)cc1Cl` [CBK044196], the viability at 28.5 h, 10 µM turned out to be 101%.
For `Cc1cc(C(=O)N2CCC(N3C(=O)OCC3(C)C)CC2)n(C(C)(C)C)n1` [CBK044233], the viability at 28.5 h, 10 µM was 94.4%.
Turning to `Cn1nc(C(C)(C)C)cc1C(=O)N1CCC(N2C(=O)OCC2(C)C)CC1` [CBK044234], the viability at 28.5 h, 10 µM came to 81.5%.
Take `CC(=O)Nc1ccc(S(=O)(=O)NCCC#N)cc1Cl` [CBK044272]: the viability at 28.5 h, 10 µM is 95.2%.
With `O=S(=O)(c1ccc(OC(F)(F)F)cc1)N1CCc2ccccc21` [CBK044279], the viability at 28.5 h, 10 µM was found to be 96.7%.
Consider `CCCCCc1ccc(S(=O)(=O)N2CCN(C(=O)C3CCCO3)CC2)cc1` (centres unmarked) [CBK044329], for which the viability at 28.5 h, 10 µM came to 101%.
Consider `CCOC(=O)CN1CCN(S(=O)(=O)c2ccc(F)c(F)c2F)CC1` [CBK044345], for which the viability at 28.5 h, 10 µM is 92.4%.
Same read-out and setting: as for `N#Cc1ccccc1NC(=O)NCCC1=CCCCC1` [CBK044365], the figure is 95.1%.
On to `O=[N+]([O-])c1cccc(NS(=O)(=O)c2ccc(Cl)c(Cl)c2)c1` [CBK044396], for which the viability at 28.5 h, 10 µM came out at 78.5%.
On to `CC(C)c1ccc(S(=O)(=O)NC(C#N)c2ccccc2)cc1` (centres unmarked) [CBK044403], for which the viability at 28.5 h, 10 µM was found to be 101%.
For the compound `O=S(=O)(NCCc1ccncc1)c1ccc(Cl)c(Cl)c1` [CBK044438], the viability at 28.5 h, 10 µM is 97.9%.
The same measure, in the same setting: under `CC(C)c1ccc(S(=O)(=O)Nc2ccc3[nH]c(C(F)(F)F)nc3c2)cc1` [CBK044470] stands 90.3%; under `O=S(=O)(Nc1cccc2ncccc12)c1ccc(OC(F)(F)F)cc1` [CBK044490], 112%.
Consider `O=S(=O)(c1cccs1)N1CCc2ccccc2C1` [CBK044531], for which the viability at 28.5 h, 10 µM is 113%.
For `O=C(NCCc1cccs1)Nc1ccc(F)c(F)c1F` [CBK044543], the viability at 28.5 h, 10 µM amounted to 96.1%.
On the same count and under the same terms, as for `CC(C)c1ccc(S(=O)(=O)Nc2ccc(Br)c(F)c2)cc1` [CBK044556], the figure is 100%; as for `CC(C)c1ccc(S(=O)(=O)Nc2ccc(OC(F)F)cc2)cc1` [CBK044565], 87.8%; as for `CCOC(=O)CN1CCN(S(=O)(=O)c2cc(Cl)ccc2Cl)CC1` [CBK044628], 91.1%.
For `Cc1cc(C)nc(NS(=O)(=O)c2ccc(OC(F)(F)F)cc2)c1` [CBK044711], the viability at 28.5 h, 10 µM worked out at 90.7%.
`CC(C)c1ccc(S(=O)(=O)NCCC#N)cc1` [CBK044722]: the viability at 28.5 h, 10 µM amounted to 105%.
`CCc1cc(Br)ccc1S(=O)(=O)NCCC#N` [CBK044760]: the viability at 28.5 h, 10 µM came to 91.9%.
Consider `O=S(=O)(Nc1cccc(Cl)c1)c1ccc(OC(F)(F)F)cc1` [CBK044769], for which the viability at 28.5 h, 10 µM stood at 109%.
As for `CC(=O)Nc1ccc(S(=O)(=O)N(C)c2ccccn2)cc1Cl` [CBK044789], the viability at 28.5 h, 10 µM was 94.5%.
Still for that read-out and setting: as for `CCC(C)(C)c1ccc(S(=O)(=O)NCc2ccc(C(F)(F)F)cc2)cc1` [CBK044820], the figure is 107%.
`O=C(NCCc1cccs1)Nc1ccc(Cl)cc1C(F)(F)F` [CBK044825]: the viability at 28.5 h, 10 µM worked out at 86.1%.
Regarding `O=S(=O)(Nc1ccc(Cl)c(Cl)c1)c1ccc(Cl)c(Cl)c1` [CBK044838], the viability at 28.5 h, 10 µM came to 86.8%.
Regarding `N#CCNS(=O)(=O)c1ccc(OC(F)(F)F)cc1` [CBK044841], the viability at 28.5 h, 10 µM came to 111%.
In the case of `O=C(NCCc1cccs1)Nc1ccccc1OC(F)(F)F` [CBK044873], the viability at 28.5 h, 10 µM stood at 98%.
The same measure, in the same setting: as for `Cc1cc(S(=O)(=O)Nc2n[nH]cc2C#N)c(C)cc1Cl` [CBK044943], the figure is 91.9%.
Still for that read-out and setting: as for `CCOC(=O)CNS(=O)(=O)c1cccs1` [CBK044958], the figure is 93.3%; as for `Cc1ccc(CNC(=O)NCCc2cccs2)cc1` [CBK044960], 88.5%.
With `Cc1cc(S(=O)(=O)N2CCN(c3ccc(Cl)cc3)CC2)c(C)cc1Cl` [CBK044965], the viability at 28.5 h, 10 µM was found to be 114%.
As to `Cc1cc(C)cc(NC(=O)NCCc2cccs2)c1` [CBK044998], the viability at 28.5 h, 10 µM came to 93.2%.
`O=C(NCCc1cccs1)Nc1cccc(SC(F)(F)F)c1` [CBK044999]: the viability at 28.5 h, 10 µM worked out at 95%.
As for `CCc1cccc(NC(=O)NCCC2=CCCCC2)c1` [CBK045009], the viability at 28.5 h, 10 µM is 108%.
Same read-out and setting: as for `CC(C)c1ccc(S(=O)(=O)Nc2cc(F)c(F)c(F)c2)cc1` [CBK045028], the figure is 104%.
For `CCc1cc(Br)ccc1S(=O)(=O)NCCc1cccs1` [CBK045033], the viability at 28.5 h, 10 µM is 109%.
For the compound `O=C(Nc1ccccc1C(F)(F)F)N1CCN(c2ccccc2Cl)CC1` [CBK045081], the viability at 28.5 h, 10 µM came out at 79.7%.
Turning to `O=S(=O)(c1ccc(Cl)s1)N1CCN(c2ccccc2Cl)CC1` [CBK045098], the viability at 28.5 h, 10 µM amounted to 98%.
As for `CC(=O)Nc1ccc(S(=O)(=O)NCC#N)cc1Cl` [CBK045102], the viability at 28.5 h, 10 µM stood at 97.3%.
Regarding `CCc1cc(Br)ccc1S(=O)(=O)NCc1cccc(F)c1` [CBK045114], the viability at 28.5 h, 10 µM was 89.1%.
With `O=C(NCCc1ccccc1)NCCc1cccs1` [CBK045154], the viability at 28.5 h, 10 µM is 114%.
As for `O=S(=O)(c1cccs1)N1CCCN(Cc2nccs2)CC1` [CBK045172], the viability at 28.5 h, 10 µM stood at 119%.
`CCCCOc1ccc(NC(=O)NCCc2cccs2)cc1` [CBK045202]: the viability at 28.5 h, 10 µM is 105%.
Regarding `O=S(=O)(c1ccc(F)c(Cl)c1)N1CCCN(Cc2ccccc2)CC1` [CBK045211], the viability at 28.5 h, 10 µM came out at 101%.
Take `COC[C@@H]1CCCN1S(=O)(=O)c1cccs1` [CBK045239]: the viability at 28.5 h, 10 µM is 96%.
The same measure, in the same setting: as for `CCC(C)(C)c1ccc(S(=O)(=O)Nc2cc(Cl)ccc2O)cc1` [CBK045243], the figure is 96%.
Regarding `O=C(NCCc1cccs1)Nc1ccc2c(c1)C(F)(F)OC(F)(F)O2` [CBK045255], the viability at 28.5 h, 10 µM was found to be 98.2%.
Turning to `Cc1ccc(NS(=O)(=O)c2cccs2)cc1` [CBK045362], the viability at 28.5 h, 10 µM was determined as 64%.
Take `O=C(NCCc1cccs1)NCc1cc(F)ccc1F` [CBK045363]: the viability at 28.5 h, 10 µM was 97.1%.
For the compound `CC(=O)c1ccc(S(=O)(=O)Nc2ccc(C)cc2)cc1` [CBK045380], the viability at 28.5 h, 10 µM turned out to be 108%.
Consider `COc1ccc(S(=O)(=O)Nc2ccccc2C(=O)Nc2ccc(F)cc2)cc1OC` [CBK045404], for which the viability at 28.5 h, 10 µM amounted to 91.2%.
The same measure, in the same setting: as for `CCN(CC)C(=O)c1ccccc1NS(=O)(=O)c1cc(Br)ccc1OC` [CBK045422], the figure is 89.6%; as for `O=C(Nc1ccc(F)cc1)c1ccccc1NS(=O)(=O)c1ccc(C(F)(F)F)cc1[N+](=O)[O-]` [CBK045439], 108%.
The same measure, in the same setting: as for `CCOC(=O)N1CCC(NS(=O)(=O)c2ccc(F)cc2)CC1` [CBK045455], the figure is 95.1%.
As for `CCOC(=O)N1CCC(NS(=O)(=O)Cc2ccccc2)CC1` [CBK045457], the viability at 28.5 h, 10 µM was 90.7%.
As to `CCOC(=O)N1CCC(NS(=O)(=O)c2cc(Cl)sc2Cl)CC1` [CBK045462], the viability at 28.5 h, 10 µM was 86.7%.
For `CCOC(=O)N1CCC(NS(=O)(=O)c2cc(Br)ccc2OC)CC1` [CBK045463], the viability at 28.5 h, 10 µM stood at 115%.
For `CCOC(=O)N1CCC(NS(=O)(=O)c2ccc(OC)c(OC)c2)CC1` [CBK045464], the viability at 28.5 h, 10 µM stood at 104%.
Still for that read-out and setting: under `CCOC(=O)N1CCC(NS(=O)(=O)Cc2ccccc2[N+](=O)[O-])CC1` [CBK045467] stands 97.3%; under `CCOC(=O)N1CCC(NS(=O)(=O)c2ccc(C)c([N+](=O)[O-])c2)CC1` [CBK045468], 85.8%.
Turning to `CCOC(=O)N1CCC(NS(=O)(=O)c2ccc(NC(C)=O)cc2)CC1` [CBK045470], the viability at 28.5 h, 10 µM stood at 97.8%.

The data set is the same for the next values; noted with them: human, hela cells, % viability, bulk resorufin, single well.
Turning to `O=C(Nc1ccc(OC(F)(F)F)cc1)N1CCC2(CC1)OCCO2` [CBK045235], the viability at 28.5 h, 10 µM turned out to be 91.7%.
